Data set [1] deals with codon 61 of c-Ha-ras. Kind of data set: DMBA-induced Ha-ras codon 61 mutation in mouse skin DNA. The class given is in vivo, female SENCAR mice. The note with it: acetone neg. control 3.05. On the procedure: One of the best studied in vivo models for evaluation of environmental stress response effects on DNA and cell damage is the mouse skin system in which the skin is treated with a chemical compound known to damage DNA and cell structure and function. […] Exp. Med. Biol. 1995, 369, 167). […] Following dosing and treatment, skin DNA and cell structure and function were evaluated using three endpoints, epidermal hyperplasia, 8-OH-dG formation, and Ha-ras mutation. Each method is described briefly below. Seven week old, pathogen free, female SENCAR mice were purchased from the National Cancer Institute (NCI, Frederick, Md.). Mice were randomized by weight and separated into groups (n=5 mice per group). Experimental groups of mice were treated on shaved dorsal skin with antioxidants, 15 min prior to treatment with DMBA (25 μg per treatment). […] Epidermal thickness was determined in each animal from at least 20 randomly selected sites per animal using formalin-fixed, paraffin-embedded 5 μm sections stained with hematoxylin and eosin. […] DNA isolated from freshly-frozen tissues of 5 mice per group was analyzed for […] of c-Ha-ras by PCR analysis. […] The ratio of the amount of wild type DNA to mutated DNA was determined by quantifying intensity of 32P labeling on autoradiograms. […]

Data set [2] relates to 3PC cells. The data set can be described thus: ATP-bioluminescence assay, reactive oxygen species-stimulated growth of cells. In kind it is cell-based.
Data set [3] concerns DMBA-induced epidermal hyperplasia. The data set can be described thus: Inhibition of DMBA-induced epidermal hyperplasia in mouse skin. The class given is in vivo, female SENCAR mice. On the procedure: One of the best studied in vivo models for evaluation of environmental stress response effects on DNA and cell damage is the mouse skin system in which the skin is treated with a chemical compound known to damage DNA and cell structure and function. […] Exp. Med. Biol. 1995, 369, 167). […] Following dosing and treatment, skin DNA and cell structure and function were evaluated using three endpoints, epidermal hyperplasia, 8-OH-dG formation, and Ha-ras mutation. Each method is described briefly below. Seven week old, pathogen free, female SENCAR mice were purchased from the National Cancer Institute (NCI, Frederick, Md.). Mice were randomized by weight and separated into groups (n=5 mice per group). Experimental groups of mice were treated on shaved dorsal skin with antioxidants, 15 min prior to treatment with DMBA (25 μg per treatment). In topical experiments, different doses, i.e., 0.5, 1.0, 2.0, and/or 4.0 mg, of test or reference antioxidants per mouse were applied topically twice weekly for a total of 8 treatments (4 weeks). […] Negative control groups were treated with vehicle (acetone) only. […] Most antioxidants were administered in acetone. Antioxidants that were not soluble in acetone to the desired concentration, were dissolved in the necessary volume: mixture of acetone and water or ethanol. All topical treatments were administered in a final volume of 0.2 mL. […] The same control groups were maintained. Both positive and negative control groups were fed a standard AIN-93G diet (i.e., not supplemented with antioxidants). […] At sacrifice the shaved dorsal skin section was removed. […] Epidermal thickness was determined in each animal from at least 20 randomly selected sites per animal using formalin-fixed, paraffin-embedded 5 μm sections stained with hematoxylin and eosin. The remaining skin was frozen in liquid nitrogen. All frozen sections were stored at −70 C until analysis for isolation of DNA.

Where [4] appears, read: 3PC cells, read-out: Estimated IC50 (mg/L) in ATP Bioluminescence Assay.

In brackets after ≈: the same amount, converted by molar mass. Like-named read-outs stand apart in the source and are kept apart here.

Consider `O=C1O[C@H]([C@@H](O)CO)C(O)=C1O` [Ascorbic Acid, L-ascorbic acid], for which the “Ha-ras Formation” value in data set [1] (topical 4 mg + DMBA) is 6.19. Further, the IC50 in data set [2] (setting [4]) is 4.6 mg/L (≈ 26.1 µM); in data set [2] (ATP bioluminescence, calculated on ascorbic acid content, read-out: Estimated IC50 Based on vitamin C content), 4.6 mg/L (≈ 26.1 µM); in data set [2] (ATP bioluminescence, read-out: Estimated IC50 based on weight), 4.6 mg/L (≈ 26.1 µM). Besides, the “Inhibition of DMBA-Induced Epidermal Hyperplasia” value in data set [3] (dietary 1.0%) was determined as 83%; in data set [3] (dietary 5.0%) it was 86%; in data set [3] (topical application 0.5 mg), 66%; in data set [3] (topical application 2.0 mg), 66%.

`Cc1c2ccccc2c(C)c2c1ccc1ccccc12` [DMBA, dimethylbenzanthracene]: the “Ha-ras Formation” value in data set [1] (DMBA only (pos. control)) is reported as 18.39.

In the case of `CC1=C[C@H](O)CC(C)(C)[C@H]1/C=C/C(C)=C/C=C/C(C)=C/C=C/C=C(C)/C=C/C=C(C)/C=C/C1=C(C)C[C@@H](O)CC1(C)C` [Lutein, lutein], in data set [2] (setting [4]), the IC50 is 70.8 mg/L (≈ 124 µM).
